pIC50: −log10 of the molar value. ≈ marks a conversion by molar mass, not a printed value.
Experiments:
HeLa [1] = assay: Antiproliferative activity against human HeLa cells assessed as reduction in cell viability incubated for 48 hrs by CCK-8 assay; assay type: functional, cell-based
MCF7 = assay: Antiproliferative activity against human MCF7 cells assessed as reduction in cell viability incubated for 48 hrs by CCK-8 assay; assay type: functional, cell-based; details: MCF7, 48 h
KB = assay: Antiproliferative activity against human KB cells assessed as reduction in cell viability incubated for 48 hrs by CCK-8 assay; assay type: functional, cell-based
HEK-293T = assay: Antiproliferative activity against HEK293T cells assessed as reduction in cell viability incubated for 48 hrs by CCK-8 assay; assay type: functional, cell-based; details: Homo sapiens
HepG2 [2] = assay: cells; details: Homo sapiens, HepG2, 48 h
CNE-2 = assay: Anticancer activity against human CNE-2 cells assessed as reduction in cell viability incubated for 72 hrs by MTT assay; assay type: functional, cell-based; details: CNE-2, 72 h
HepG2 [3] = assay: cells; details: Homo sapiens, HepG2, 72 h
Description: Anticancer activity against human HepG2 cells assessed as reduction in cell viability incubated for 72 hrs by MTT assay

cells = details: Homo sapiens, SPCA1, 72 h
Description: Anticancer activity against human SPCA1 cells assessed as reduction in cell viability incubated for 72 hrs by MTT assay

HeLa [4] = assay: cells; details: Homo sapiens, 72 h
Description: Anticancer activity against human HeLa cells assessed as reduction in cell viability incubated for 72 hrs by MTT assay

HCT-116 = assay: cells; details: Homo sapiens, HCT-116, 72 h
Description: Anticancer activity against human HCT-116 cells assessed as reduction in cell viability incubated for 72 hrs by MTT assay

MDA-MB-231 = assay: cells; assay type: functional, cell-based; details: Homo sapiens, MDA-MB-231, 48 h
Description: Anticancer activity against human MDA-MB-231 cells assessed as reduction in cell growth incubated for 48 hrs by MTT assay

CNE = assay: cells; assay type: functional, cell-based; details: Homo sapiens, 48 h
Description: Anticancer activity against human CNE cells assessed as reduction in cell growth incubated for 48 hrs by MTT assay

SK-OV-3 = assay: cells; assay type: functional, cell-based; details: Homo sapiens, SK-OV-3, 48 h
Description: Anticancer activity against human SK-OV-3 cells assessed as reduction in cell growth incubated for 48 hrs by MTT assay

Staphylococcus aureus = assay: microbe, parasite or virus in culture; details: Staphylococcus aureus, 171, 24 h
Description: Antimicrobial activity against methicillin-resistant Staphylococcus aureus 171 clinical isolate assessed as bacterial growth inhibition incubated for 24 hrs by CLSI based broth microdilution method

Escherichia coli = assay: microbe, parasite or virus in culture
Description: Antibacterial activity against Escherichia coli assessed as inhibition of bacterial growth by broth microdilution method

Acinetobacter baumannii = assay: microbe, parasite or virus in culture; details: ATCC 19606
Description: Antibacterial activity against Acinetobacter baumannii ATCC 19606 assessed as inhibition of bacterial growth by broth microdilution method

Pseudomonas aeruginosa = assay: microbe, parasite or virus in culture; details: Pseudomonas aeruginosa, 126, 24 h
Description: Antibacterial activity against multidrug-resistant Pseudomonas aeruginosa 126 clinical isolate assessed as reduction in bacterial growth incubated for 24 hrs by CLSI based broth microdilution method

[5] = Antiproliferative activity against human GBM-0627-GFD cells assessed as reduction in cell viability by MTT assay; assay type: functional, cell-based
Acetylcholinesterase = Acetylcholinesterase (Electrophorus electricus, UniProt O42275); assay: Inhibition of electric eel AchE using acetylthiocholine as substrate incubated for 30 mins by Ellman's method
Sequence of Acetylcholinesterase (O42275 whole entry): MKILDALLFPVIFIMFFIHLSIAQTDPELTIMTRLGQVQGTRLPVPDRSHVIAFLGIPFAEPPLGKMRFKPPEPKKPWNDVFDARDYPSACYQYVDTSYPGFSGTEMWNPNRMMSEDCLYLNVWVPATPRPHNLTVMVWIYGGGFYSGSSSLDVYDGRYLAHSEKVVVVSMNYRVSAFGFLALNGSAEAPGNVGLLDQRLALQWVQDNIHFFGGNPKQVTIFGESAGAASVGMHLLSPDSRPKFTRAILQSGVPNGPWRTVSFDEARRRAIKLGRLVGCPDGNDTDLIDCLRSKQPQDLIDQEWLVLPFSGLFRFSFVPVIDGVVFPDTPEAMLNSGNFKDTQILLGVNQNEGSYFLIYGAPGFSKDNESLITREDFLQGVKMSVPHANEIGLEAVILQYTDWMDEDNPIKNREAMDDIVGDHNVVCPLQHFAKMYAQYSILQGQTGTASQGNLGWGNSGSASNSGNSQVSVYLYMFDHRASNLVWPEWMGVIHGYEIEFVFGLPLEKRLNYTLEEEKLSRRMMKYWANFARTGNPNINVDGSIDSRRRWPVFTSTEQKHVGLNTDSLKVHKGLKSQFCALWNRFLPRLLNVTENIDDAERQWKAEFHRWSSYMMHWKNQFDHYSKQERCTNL

Cholinesterase = Cholinesterase (Equus caballus, UniProt P81908); assay: Inhibition of equine serum BuChE using butyrylthiocholine iodide as substrate measured for 30 mins by ELLman's method
Sequence of Cholinesterase (P81908 whole entry): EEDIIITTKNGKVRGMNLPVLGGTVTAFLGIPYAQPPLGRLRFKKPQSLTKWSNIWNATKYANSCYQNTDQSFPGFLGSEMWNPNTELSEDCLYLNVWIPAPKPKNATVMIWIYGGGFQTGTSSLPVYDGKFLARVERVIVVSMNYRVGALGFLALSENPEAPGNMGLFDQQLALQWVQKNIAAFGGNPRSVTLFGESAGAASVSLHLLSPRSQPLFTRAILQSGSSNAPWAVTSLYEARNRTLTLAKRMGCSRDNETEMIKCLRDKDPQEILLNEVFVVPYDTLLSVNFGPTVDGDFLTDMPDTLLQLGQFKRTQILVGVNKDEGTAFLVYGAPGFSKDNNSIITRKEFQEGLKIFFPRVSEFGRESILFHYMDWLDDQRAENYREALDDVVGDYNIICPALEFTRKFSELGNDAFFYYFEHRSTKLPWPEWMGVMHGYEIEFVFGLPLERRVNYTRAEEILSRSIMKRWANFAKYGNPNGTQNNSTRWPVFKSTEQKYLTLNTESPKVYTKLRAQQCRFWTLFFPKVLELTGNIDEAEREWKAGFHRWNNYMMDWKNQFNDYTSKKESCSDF

CC(C)c1ccc(COc2cccc3c2C(=O)c2c(OCc4ccc(C(C)C)cc4)cc(C(=O)N[C@H](C(=O)O)C(C)C)cc2C3=O)cc1
pIC50 (HeLa [1]): 4.43
pIC50 (MCF7): 4.86
pIC50 (KB): 5.03
pIC50 (HEK-293T): 5.72
pIC50 (HepG2 [2]): 5.24

CCOP(=O)(OCC)C(NC(=O)c1cc(O)c2c(c1)C(=O)c1cccc(O)c1C2=O)c1cccc(Cl)c1 (configuration not stated)
pIC50 (CNE-2): 4.17
pIC50 (HepG2 [3]): 4.41
pIC50 (cells): 4.55
pIC50 (HeLa [4]): 4.45
pIC50 (HCT-116): 4.32

Cc1ccc(Nc2ncnc3ccc(NC(=O)c4cc(OCc5ccccc5)c5c(c4)C(=O)c4cccc(OCc6ccccc6)c4C5=O)cc23)cc1
pIC50 (MDA-MB-231): 5.51

CCOP(=O)(OCC)C(NC(=O)c1cc(O)c2c(c1)C(=O)c1cccc(O)c1C2=O)c1ccc(OC)cc1 (configuration not stated)
pIC50 (CNE-2): 4.37
pIC50 (cells): 4.41

COc1ccc(Nc2ncnc3ccc(NC(=O)c4cc(OCc5ccccc5)c5c(c4)C(=O)c4cccc(OCc6ccccc6)c4C5=O)cc23)cc1
pIC50 (CNE): 4.61
pIC50 (MDA-MB-231): 4.37
pIC50 (SK-OV-3): < 4.00

COc1cccc(Nc2ncnc3ccc(NC(=O)c4cc(OCc5ccccc5)c5c(c4)C(=O)c4cccc(OCc6ccccc6)c4C5=O)cc23)c1
pIC50 (CNE): 4.25
pIC50 (MDA-MB-231): 4.13
pIC50 (SK-OV-3): 4.16

CC(C)[C@H](NC(=O)c1cc(OCc2ccccc2)c2c(c1)C(=O)c1cccc(OCc3ccccc3)c1C2=O)C(=O)O
pIC50 (HeLa [1]): 4.35
pIC50 (MCF7): 4.44
pIC50 (KB): 4.81
pIC50 (HEK-293T): 4.67
pIC50 (HepG2 [2]): 4.44

COc1ccc(C[n+]2ccc(CCCOC(=O)c3cc(O)c4c(c3)C(=O)c3cccc(O)c3C4=O)cc2)cc1.[Br-]
MIC (Staphylococcus aureus): 16 µg/mL
MIC (Escherichia coli): > 128 µg/mL
MIC (Acinetobacter baumannii): 128 µg/mL
MIC (Pseudomonas aeruginosa): 32 µg/mL

CCOP(=O)(OCC)C(NC(=O)c1cc(O)c2c(c1)C(=O)c1cccc(O)c1C2=O)c1ccccc1OC (configuration not stated)
pIC50 (CNE-2): 4.54
pIC50 (cells): 4.82

CCCCOc1cccc2c1C(=O)c1c(OCCCC)cc(C(=O)N[C@H](C(=O)O)C(C)C)cc1C2=O
pIC50 (HeLa [1]): 4.17
pIC50 (MCF7): < 4.00
pIC50 (KB): 4.54
pIC50 (HEK-293T): 4.37
pIC50 (HepG2 [2]): 4.26

CO/N=C(\C(=O)N[C@@H]1C(=O)N2C(C(=O)O)=C(COC(N)=O)CS[C@H]12)c1ccco1 [CEFUROXIME]
MIC (Staphylococcus aureus): 1020 µg/mL (≈ 2410 µM)
MIC (Escherichia coli): 64 µg/mL (≈ 151 µM)
MIC (Acinetobacter baumannii): 1020 µg/mL (≈ 2410 µM)
MIC (Pseudomonas aeruginosa): 1020 µg/mL (≈ 2410 µM)

CC(C)[C@H](NC(=O)c1cc(OCCCc2ccccc2)c2c(c1)C(=O)c1cccc(OCCCc3ccccc3)c1C2=O)C(=O)O
pIC50 (HeLa [1]): 5.03
pIC50 (MCF7): 5.35
pIC50 (KB): 5.31
pIC50 (HEK-293T): 5.80
pIC50 (HepG2 [2]): 5.44

CCOP(=O)(OCC)C(C)(NC(=O)c1cc(O)c2c(c1)C(=O)c1cccc(O)c1C2=O)c1ccccc1 (configuration not stated)
pIC50 (CNE-2): 4.42
pIC50 (cells): 4.60
pIC50 (HeLa [4]): < 4.30
pIC50 (HCT-116): 4.63

O=C(Nc1ccc2ncnc(Nc3ccc(F)cc3)c2c1)c1cc(OCc2ccccc2)c2c(c1)C(=O)c1cccc(OCc3ccccc3)c1C2=O
pIC50 (CNE): 4.91
pIC50 (MDA-MB-231): 5.52
pIC50 (SK-OV-3): 4.69

O=c1[nH]cc(F)c(=O)[nH]1 [FLUOROURACIL]
pIC50 (CNE-2): 4.40
pIC50 (HepG2 [3]): 4.52
pIC50 (cells): 4.37

CC(C)[C@H](NC(=O)c1cc(OCc2cccc(F)c2)c2c(c1)C(=O)c1cccc(OCc3cccc(F)c3)c1C2=O)C(=O)O
pIC50 (HeLa [1]): 4.45
pIC50 (MCF7): 4.41
pIC50 (KB): 4.75
pIC50 (HEK-293T): 4.89
pIC50 (HepG2 [2]): 4.53

CCOP(=O)(OCC)C(C)(NC(=O)c1cc(O)c2c(c1)C(=O)c1cccc(O)c1C2=O)c1ccc(C)cc1 (configuration not stated)
pIC50 (CNE-2): 4.47
pIC50 (cells): 4.77
pIC50 (HeLa [4]): < 4.30
pIC50 (HCT-116): 4.51

CCOP(=O)(OCC)C(NC(=O)c1cc(O)c2c(c1)C(=O)c1cccc(O)c1C2=O)c1ccccc1 (configuration not stated)
pIC50 (CNE-2): 4.46
pIC50 (cells): 4.56

N[C@@H](CCCCNC(=O)c1cc(O)c2c(c1)C(=O)c1cccc(O)c1C2=O)C(=O)O
pIC50 [5]: < 4.10

O=C(NCCCCNc1c2c(nc3ccccc13)CCCC2)c1cc(O)c2c(c1)C(=O)c1cccc(O)c1C2=O
pIC50 (Acetylcholinesterase): 7.23
pIC50 (Cholinesterase): 6.54

Cc1cccc(Nc2ncnc3ccc(NC(=O)c4cc(OCc5ccccc5)c5c(c4)C(=O)c4cccc(OCc6ccccc6)c4C5=O)cc23)c1
pIC50 (CNE): 5.23
pIC50 (MDA-MB-231): 4.30
pIC50 (SK-OV-3): < 4.00

N#Cc1ccc(C[n+]2ccc(CCCNC(=O)c3cc(O)c4c(c3)C(=O)c3cccc(O)c3C4=O)cc2)cc1.[Br-]
MIC (Staphylococcus aureus): 16 µg/mL
MIC (Escherichia coli): 64 µg/mL
MIC (Acinetobacter baumannii): > 128 µg/mL
MIC (Pseudomonas aeruginosa): 32 µg/mL

O=C(NCCCCCCNc1c2c(nc3ccccc13)CCC2)c1cc(O)c2c(c1)C(=O)c1cccc(O)c1C2=O
pIC50 (Acetylcholinesterase): 6.27
pIC50 (Cholinesterase): 6.66

O=C(NCCCCCCNc1c2c(nc3cc(Cl)ccc13)CCCC2)c1cc(O)c2c(c1)C(=O)c1cccc(O)c1C2=O
pIC50 (Acetylcholinesterase): 7.66
pIC50 (Cholinesterase): 6.11

CCOP(=O)(OCC)C(NC(=O)c1cc(O)c2c(c1)C(=O)c1cccc(O)c1C2=O)c1cccc(OC)c1 (configuration not stated)
pIC50 (CNE-2): 4.62
pIC50 (cells): 4.55

O=C(NCCCCCCCCNc1c2c(nc3ccccc13)CCCC2)c1cc(O)c2c(c1)C(=O)c1cccc(O)c1C2=O
pIC50 (Acetylcholinesterase): 6.83
pIC50 (Cholinesterase): 6.44

Cc1ccc(C[n+]2ccc(CCCOC(=O)c3cc(O)c4c(c3)C(=O)c3cccc(O)c3C4=O)cc2)cc1.[Br-]
MIC (Staphylococcus aureus): 8 µg/mL
MIC (Escherichia coli): 64 µg/mL
MIC (Acinetobacter baumannii): > 128 µg/mL
MIC (Pseudomonas aeruginosa): 16 µg/mL

CCOP(=O)(OCC)C(C)(CCc1ccccc1)NC(=O)c1cc(O)c2c(c1)C(=O)c1cccc(O)c1C2=O (configuration not stated)
pIC50 (CNE-2): 4.56
pIC50 (cells): 5.05
pIC50 (HeLa [4]): 4.34
pIC50 (HCT-116): 4.90

O=C(CCCCCNC(=O)c1cc(O)c2c(c1)C(=O)c1cccc(O)c1C2=O)NO
pIC50 [5]: 5.26
